Counter-ions that a name gives are not always drawn. Like-named read-outs stand apart in the source and are kept apart here.
Tests used:
human GlyT1c = human GlyT1c (Homo sapiens (Human), UniProt P48067); test: [3H]-Glycine uptake into recombinant CHO cells expressing human GlyT1; assay type: cell-based; settings: hGlyT1c_5_CHO cells, 200 nM [3H]-glycine
Description: [^3H]-Glycine uptake into recombinant CHO cells expressing human GlyT1: Human GlyT1c expressing recombinant hGlyT1c—5_CHO cells were plated at 20,000 cells per well in 96 well Cytostar-T scintillation microplates (Amersham Biosciences) and cultured to sub-confluency for 24 h. […] The plates were placed in a Wallac Microbeta (PerkinElmer) and continuously counted by solid phase scintillation spectrometry during up to 3 hours. […] IC50 calculations were made by four-parametric logistic nonlinear regression analysis (GraphPad Prism) using determinations within the range of linear increase of [^3H]-glycine incorporation between 60 and 120 min.

human GlyT1c transporter = human GlyT1c transporter (Homo sapiens (Human), UniProt P48067); test: Radioligand binding assay using recombinant CHO cell membranes expressing human GlyT1; settings: read-out: radioligand binding Kiapp
human GlyT1c transporter, sequence (P48067 whole entry): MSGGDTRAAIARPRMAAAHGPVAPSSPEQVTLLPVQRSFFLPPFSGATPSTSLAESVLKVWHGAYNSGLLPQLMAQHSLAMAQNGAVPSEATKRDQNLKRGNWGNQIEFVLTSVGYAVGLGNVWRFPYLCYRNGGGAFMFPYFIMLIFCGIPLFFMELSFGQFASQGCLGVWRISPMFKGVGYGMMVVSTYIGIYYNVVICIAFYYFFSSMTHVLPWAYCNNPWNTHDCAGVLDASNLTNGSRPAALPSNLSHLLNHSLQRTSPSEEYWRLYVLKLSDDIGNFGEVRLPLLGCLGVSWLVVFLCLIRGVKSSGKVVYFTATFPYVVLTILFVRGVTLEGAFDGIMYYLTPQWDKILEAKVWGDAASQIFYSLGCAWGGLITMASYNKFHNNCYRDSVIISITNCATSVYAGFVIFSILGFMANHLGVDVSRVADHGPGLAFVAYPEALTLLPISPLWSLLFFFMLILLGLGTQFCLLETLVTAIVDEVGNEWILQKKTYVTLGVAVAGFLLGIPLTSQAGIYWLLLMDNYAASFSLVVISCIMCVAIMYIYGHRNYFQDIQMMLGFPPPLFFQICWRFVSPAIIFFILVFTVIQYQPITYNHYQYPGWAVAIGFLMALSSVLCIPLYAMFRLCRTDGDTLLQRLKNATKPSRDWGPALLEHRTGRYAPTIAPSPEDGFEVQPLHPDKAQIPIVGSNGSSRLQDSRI
In short: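 Apparent Ki values were derived by Cheng-Prusoff from one-site IC50 fits of displacement curves. Membranes from recombinant CHO cells (human GlyT1c, 50 μg/ml) were incubated 1 h at room temperature with 0.5 nM [^3H]-(R)-NPTS and test compound (1% DMSO, pH 7.5 buffer), with 10 μM Org24598 for non-specific binding, then filtered and counted.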

[1] = examples 88-204, radioligand not specified by footnote
[2] = radioligand [3H]-(R)-NPTS (examples 1-19, 22-52, 54-87)

human GlyT1c, sequence (P48067 whole entry): as above

Compound	IC50 (human GlyT1c) [µM]	Ki (human GlyT1c transporter; [1]) [µM]	Ki (human GlyT1c transporter; [2]) [µM]	IC50 (human GlyT1c; hydrochloride) [µM]
O=S(=O)(CCCOc1ccc2c(c1)C(C1(c3ccc(Cl)cc3)CCC1)NCC2)N1CCNCC1 (stereo not shown) [Example 133, 1-[1-(4-Chlorophenyl)cyclobutyl]-7-[3-(piperazin-1-ylsulfonyl)propoxy]-1,2,3,4-tetrahydroisoquinoline dihydrochloride]	≤ 10	≤ 10	–	–
O=S(=O)(NCCOc1ccc2c(c1)C(C1(c3ccc(Cl)cc3)CCC1)NCC2)C(F)(F)F (stereo not shown) [Example 11, N-(2-{1-[1-(4-Chloro-phenyl)-cyclobutyl]-1,2,3,4-tetrahydro-isoquinolin-7-yloxy}-ethyl)-C,C,C-trifluoro-methanesulfonamide]	≤ 10	–	≤ 10	–
COCCNS(=O)(=O)CCCOc1ccc2c(c1)C(C1(c3ccc(Cl)cc3)CCC1)NCC2 (stereo not shown) [Example 135, 3-({1-[1-(4-Chlorophenyl)cyclobutyl]-1,2,3,4-tetrahydroisoquinolin-7-yl}oxy)-N-(2-methoxyethyl)propane-1-sulfonamide hydrochloride]	≤ 100	≤ 10	–	–
CCNC(=O)NCCS(=O)(=O)NCCOc1ccc2c(c1)C(C1(c3ccc(Cl)cc3)CCC1)NCC2 (stereo not shown) [Example 202, N-[2-({1-[1-(4-Chlorophenyl)cyclobutyl]-1,2,3,4-tetrahydroisoquinolin-7-yl}oxy)ethyl]-2-[(ethylcarbamoyl)amino]ethanesulfonamide (2E)-but-2-enedioate]	≤ 10	≤ 100	–	–
CCS(=O)(=O)NCCOc1ccc2c(c1)C(C1(c3ccc(Cl)cc3)CCC1)NCC2 (stereo not shown) [Example 7, Ethanesulfonic acid (2-{1-[1-(4-chloro-phenyl)-cyclobutyl]-1,2,3,4-tetrahydro-isoquinolin-7-yloxy}-ethyl)-amide hydrochloride]	≤ 0.1	–	≤ 0.1	–
O=S(=O)(NCCOc1ccc2c(c1)[C@@H](C1(c3ccc(Cl)cc3)CCC1)NCC2)c1cccnc1 [Example 182, N-[2-({(1R)-1-[1-(4-Chlorophenyl)cyclobutyl]-1,2,3,4-tetrahydroisoquinolin-7-yl}oxy)ethyl]pyridine-3-sulfonamide hydrochloride]	–	≤ 10	–	≤ 10
CCCS(=O)(=O)NCCOc1cc2c(cc1F)CCNC2C1(c2ccc(Cl)cc2)CCC1 (stereo not shown) [Example 15, Propane-1-sulfonic acid (2-{1-[1-(4-chloro-phenyl)-cyclobutyl]-6-fluoro-1,2,3,4-tetrahydro-isoquinolin-7-yloxy}-ethyl)-amide hydrochloride]	≤ 0.1	–	≤ 0.1	–
CCCS(=O)(=O)NCCOc1ccc2c(c1)C(C1(c3ccc(Cl)cc3)CCC1)NCC2 (stereo not shown) [Example 4, Propane-1-sulfonic acid (2-{1-[1-(4-chloro-phenyl)-cyclobutyl]-1,2,3,4-tetrahydro-isoquinolin-7-yloxy}-ethyl)-amide hydrochloride]	≤ 0.1	–	≤ 0.1	–
O=S(=O)(CCCOc1ccc2c(c1)C(C1(c3ccc(Cl)cc3)CCC1)NCC2)Nc1ccccc1 (stereo not shown) [Example 112, 3-({1-[1-(4-Chlorophenyl)cyclobutyl]-1,2,3,4-tetrahydroisoquinolin-7-yl}oxy)-N-phenylpropane-1-sulfonamide hydrochloride]	≤ 10	≤ 1	–	–
CCN(CC)CCCS(=O)(=O)NCCOc1ccc2c(c1)C(C1(c3ccc(Cl)cc3)CCC1)NCC2 (stereo not shown) [Example 194, N-[2-({1-[1-(4-Chlorophenyl)cyclobutyl]-1,2,3,4-tetrahydroisoquinolin-7-yl}oxy)ethyl]-3-(diethylamino)propane-1-sulfonamide]	≤ 10	≤ 10	–	–
CCCNCCCS(=O)(=O)NCCOc1ccc2c(c1)C(C1(c3ccc(Cl)cc3)CCC1)NCC2 (stereo not shown) [Example 186, N-[2-({1-[1-(4-Chlorophenyl)cyclobutyl]-1,2,3,4-tetrahydroisoquinolin-7-yl}oxy)ethyl]-3-(propylamino)propane-1-sulfonamide (2E)-but-2-enedioate]	≤ 10	≤ 10	–	–
CC(C)(C)NS(=O)(=O)CCCOc1ccc2c(c1)C(C1(c3ccc(Cl)cc3)CCC1)NCC2 (stereo not shown) [Example 118, N-tert-Butyl-3-({1-[1-(4-chlorophenyl)cyclobutyl]-1,2,3,4-tetrahydroisoquinolin-7-yl}oxy)propane-1-sulfonamide hydrochloride]	≤ 10	≤ 1	–	–
O=S(=O)(NCCOc1ccc2c(c1)C(C1(c3ccc(Cl)cc3)CCC1)NCC2)c1cccnc1 (stereo not shown) [Example 10, Pyridine-3-sulfonic acid (2-{1-[1-(4-chloro-phenyl)-cyclobutyl]-1,2,3,4-tetrahydro-isoquinolin-7-yloxy}-ethyl)-amide hydrochloride]	–	–	≤ 0.1	≤ 0.1
CCCS(=O)(=O)N1CCN(c2cc3c(cc2OC)C(C2(c4ccc(Cl)cc4)CCC2)N(S(=O)(=O)CCC)CC3)CC1 (stereo not shown) [Example 84, 1-[1-(4-Chlorophenyl)cyclobutyl]-7-methoxy-2-(propylsulfonyl)-6-[4-(propylsulfonyl)-piperazin-1-yl]-1,2,3,4-tetrahydroisoquinoline]	≤ 100	–	≤ 10	–
CC(C)(C)OC(=O)N1CCN(S(=O)(=O)CCCOc2ccc3c(c2)C(C2(c4ccc(Cl)cc4)CCC2)NCC3)CC1 (stereo not shown) [Example 123, tert-Butyl 4-{[3-({1-[1-(4-chlorophenyl)cyclobutyl]-1,2,3,4-tetrahydroisoquinolin-7-yl}oxy)propyl]sulfonyl}piperazine-1-carboxylate]	≤ 100	≤ 10	–	–
CCCN1CCN(S(=O)(=O)NCCOc2ccc3c(c2)C(C2(c4ccc(Cl)cc4)CCC2)NCC3)CC1 (stereo not shown) [Example 183, N-[2-({1-[1-(4-Chlorophenyl)cyclobutyl]-1,2,3,4-tetrahydroisoquinolin-7-yl}oxy)ethyl]-4-propylpiperazine-1-sulfonamide dihydrochloride]	≤ 10	≤ 10	–	–
O=S(=O)(CCCN1CCOCC1)NCCOc1ccc2c(c1)C(C1(c3ccc(Cl)cc3)CCC1)NCC2 (stereo not shown) [Example 201, N-[2-({1-[1-(4-Chlorophenyl)cyclobutyl]-1,2,3,4-tetrahydroisoquinolin-7-yl}oxy)ethyl]-3-(morpholin-4-yl)propane-1-sulfonamide (2E)-but-2-enedioate]	≤ 100	≤ 100	–	–

Second part, led by results:

IC50 (human GlyT1c) [µM]	Ki (human GlyT1c transporter; [1]) [µM]	Ki (human GlyT1c transporter; [2]) [µM]	Compound	IC50 (human GlyT1c; hydrochloride) [µM]
≤ 10	≤ 10	–	COc1ccccc1NS(=O)(=O)CCCOc1ccc2c(c1)C(C1(c3ccc(Cl)cc3)CCC1)NCC2 (stereo not shown) [Example 121, 3-({1-[1-(4-Chlorophenyl)cyclobutyl]-1,2,3,4-tetrahydroisoquinolin-7-yl}oxy)-N-(2-methoxyphenyl)propane-1-sulfonamide hydrochloride]	–
≤ 1	–	≤ 1	O=S(=O)(NCCOc1ccc2c(c1)C(C1(c3ccc(Cl)cc3)CCC1)NCC2)c1ccc(Cl)nc1 (stereo not shown) [Example 29, 6-Chloro-pyridine-3-sulfonic acid (2-{1-[1-(4-chloro-phenyl)-cyclobutyl]-1,2,3,4-tetrahydro-isoquinolin-7-yloxy}-ethyl)-amide hydrochloride]	–
≤ 0.1	–	≤ 0.1	CS(=O)(=O)NCCOc1ccc2c(c1)C(C1(c3ccc(Cl)cc3)CCC1)NCC2 (stereo not shown) [Example 2, N-(2-{1-[1-(4-Chloro-phenyl)-cyclobutyl]-1,2,3,4-tetrahydro-isoquinolin-7-yloxy}-ethyl)-methanesulfonamide]	–
≤ 1	–	≤ 10	CCCS(=O)(=O)NCCOc1ccc2c(c1)C(C1(c3ccc(F)cc3)CCC1)N(C(=N)N)CC2 (stereo not shown) [Example 72, 1-[1-(4-Fluorophenyl)cyclobutyl]-7-{2-[(propylsulfonyl)amino]ethoxy}-3,4-dihydroisoquinoline-2(1H)-carboximidamide acetate]	–
≤ 0.1	≤ 0.1	–	CCCS(=O)(=O)NCCOc1ccc2c(c1)C(C(C)c1ccc(Cl)cc1)NCC2 (stereo not shown) [Example 145, N-[2-({1-[1-(4-Chlorophenyl)ethyl]-1,2,3,4-tetrahydroisoquinolin-7-yl}oxy)ethyl]propane-1-sulfonamide hydrochloride]	–
≤ 1	–	≤ 10	N#Cc1ccc(S(=O)(=O)NCCOc2ccc3c(c2)C(C2(c4ccc(Cl)cc4)CCC2)NCC3)cc1 (stereo not shown) [Example 24, N-(2-{1-[1-(4-Chloro-phenyl)-cyclobutyl]-1,2,3,4-tetrahydro-isoquinolin-7-yloxy}-ethyl)-4-cyano-benzenesulfonamide hydrochloride]	–
≤ 1	–	≤ 10	O=S(=O)(NCCOc1ccc2c(c1)C(C1(c3ccc(Cl)cc3)CCC1)NCC2)c1cccc2cccnc12 (stereo not shown) [Example 30, Quinoline-8-sulfonic acid (2-{1-[1-(4-chloro-phenyl)-cyclobutyl]-1,2,3,4-tetrahydro-isoquinolin-7-yloxy}-ethyl)-amide hydrochloride]	–
≤ 0.1	–	≤ 1	O=S(=O)(NCCOc1ccc2c(c1)C(C1(c3ccc(Cl)cc3)CCC1)NCC2)c1cccs1 (stereo not shown) [Example 17, Thiophene-2-sulfonic acid (2-{1-[1-(4-chloro-phenyl)-cyclobutyl]-1,2,3,4-tetrahydro-isoquinolin-7-yloxy}-ethyl)-amide hydrochloride]	–
≤ 1	–	≤ 10	O=S(=O)(NCCOc1ccc2c(c1)C(C1(c3ccc(Cl)cc3)CCC1)NCC2)c1cccc(Cl)c1 (stereo not shown) [Example 26, 3-Chloro-N-(2-{1-[1-(4-chloro-phenyl)-cyclobutyl]-1,2,3,4-tetrahydro-isoquinolin-7-yloxy}-ethyl)-benzenesulfonamide hydrochloride]	–

From patent US8653100B2 (AbbVie Inc., priority 2008, dated 2014)
